Measurements taken from patent publication US10759831B2, “Peptide compound, production method therefor, and use thereof” (iNtRON Biotechnology, Inc., priority 2014, dated 2020).

Columns and labels:
[1] = system: liver cancer cell line SK-HEP-1; test: SRB cell viability assay, liver cancer cell line SK-HEP-1; assay type: cell-based; details: Homo sapiens, SK-HEP1; SK-HEP-1, 72 hours; read-out: Cell growth inhibition concentration (IC50)
Procedure: Regarding a lung cancer cell line A549 (Korean Cell line Bank), a colon cancer cell line HCT116 (ATCC), a stomach cancer cell line SNU638 (Korean Cell Line Bank), a liver cancer cell line SK-HEP-1 (Korean Cell line Bank), and a breast cancer cell line MDA-MB-231 (Korean Cell line Bank), a sulforhodamine B (SRB) assay which is a method of measuring cell viability was used for measuring apoptosis effects of Asperphenin.
In detail, 190 μl of a cell suspension at a concentration of 3.5×10^4 cells/ml was inoculated in each well of a 96-well microplate. 0.8 μM, 4 μM, 20 μM, or 100 μM of Asperphenin was added to the cell culture medium, and cultured at a temperature of 37° C. for 72 hours under the condition of 5% CO2. After incubation, 50 μl of 50% (v/v) trichloroacetic acid solution (Sigma Aldrich) was added to each well, and then, incubated at a temperature of 4° C. for 30 minutes, to thereby fix the cells thereto. The fixed cells were washed with water five times, and then, dried in the air.
Next, 80 μl of a 0.4% (w/v) SRB aqueous solution (Sigma Aldrich) containing 1% (v/v) acetic acid (DUKSAN) was added to each well, incubated at room temperature for 1 hour to stain cells therein, and the stained cells washed with water and dried. The cells were dissolved by adding 200 μl of 10 mM Tris (pH 10.0) (Sigma Aldrich) to each well, and then, the number of living cells was calculated by measuring the absorbance thereof at 515 nm. The concentration of the compound inhibiting cell growth to 50% based on the number of the living cells, i.e., 50% inhibition concentration (IC50) was calculated, and the results are shown in Table 3. Here, as a positive control, etoposide (Sigma Aldrich) was used.

[2] = system: colon cancer cell line RKO; test: Cell cycle analysis by PI flow cytometry; assay type: cell-based, human
Procedure: The effects of Asperphenin B on the cell cycle of the colon cancer cell line RKO was confirmed by flow cytometry.
RKO cells (ATCC) were diluted in a medium containing 10% (v/v) FBS to become 1×10^5 cells/ml, and then, inoculated into a 60 mm culture dish. The inoculated cells were cultured for about 24 hours at a temperature of 37° C. under the condition of 5% CO2. The cultured cells were washed with phosphate-buffered saline (PBS) once, and the medium was replaced by a fresh medium. Asperphenin B at the final concentration of 0.625 μM, 1.25 μM, 2.5 μM, 5 μM, or 10 μM was added to the cultured cells, and then, the cells were cultured at a temperature of 37° C. under condition of 5% CO2.
After a certain period of time, cells attached to the culture dish and cells not attached to the medium were collected. The collected cells was washed with PBS once, and then, 1 ml of cold 70% (v/v) ethanol. The cells were incubated at a temperature of 4° C. for about 12 hours to fix the cells. After removing 70% (v/v) ethanol, the fixed cells were washed with PBS once. 500 μl of RNase A (Sigma Aldrich) at a concentration of 50 μg/ml as added to the cells, and the cells were incubated at room temperature for about 30 minutes. Propidium iodide (PI) at a final concentration of 50 μg/ml was added to the cells, and then, the cells were incubated at room temperature for about 30 minutes in a condition where reactants were in the shaded state. The cells stained with PI were subjected to analysis of cell cycle by using a BD FACSCalibur flow cytrometer (manufactured by BD Biosciences). Based on the flow cytometry results, cell ratios at the sub-G1, G0/G1, S, and G2/M phases were calculated. Here, as a negative control, cells to which Asperphenin B was not added was used.
When the RKO cells were incubated for 48 hours in the presence of Asperphenin B, cell ratios (%) dependent on the concentration of Asperphenin B are shown in FIG. 3A and Table 5. When the RKO cells were incubated in the presence of Asperphenin B at the concentrations of 2.5 μM and 5 μM, cell ratios (%) dependent on the incubation time are shown in FIGS. 3B and 3C, and Table 6.

[3] = RKO cells, 2.5 μM, 48 hours, Table 6
[4] = RKO cells, 5 μM, 48 hours, Table 6
[5] = RKO cells, 48 hours, 2.5 μM, Table 5
[6] = RKO cells, 48 hours, 5 μM, Table 5

SMILES: CCCCCCCCC[C@@H](O)CC(=O)N[C@@H](CC(N)=O)C(=O)N[C@@H](CCC(N)=O)C(=O)N[C@H](CC(=O)c1cc(C)cc(O)c1C(=O)c1c(O)cccc1O)CC(C)C [Asperphenin B]
- IC50 [1]: 3 µM
- Effect on cells in the G2/M phase ([2]; 2.5 μM or 5 μM, until 24 hours of treatment): cell cycle arrest
- Effect after 48 hours of treatment ([2]; RKO cells, 2.5 μM or 5 μM, 48 hours): cell apoptosis was induced
- Cell ratio, G0/G1 phase ([2]; RKO cells, 2.5 μM, 6 hours): 62.16%
- Cell ratio, G2/M phase ([2]; RKO cells, 2.5 μM, 6 hours): 18.28%
- Cell ratio, S phase ([2]; RKO cells, 2.5 μM, 6 hours): 13.82%
- Cell ratio, Sub-G1 phase ([2]; RKO cells, 2.5 μM, 6 hours): 3.77%
- Cell ratio, G0/G1 phase ([2]; RKO cells, 2.5 μM, 12 hours): 56.50%
- Cell ratio, G2/M phase ([2]; RKO cells, 2.5 μM, 12 hours): 22.18%
- Cell ratio, S phase ([2]; RKO cells, 2.5 μM, 12 hours): 15.09%
- Cell ratio, Sub-G1 phase ([2]; RKO cells, 2.5 μM, 12 hours): 3.25%
- Cell ratio, G0/G1 phase ([2]; RKO cells, 2.5 μM, 24 hours): 30.73%
- Cell ratio, G2/M phase ([2]; RKO cells, 2.5 μM, 24 hours): 40.76%
- Cell ratio, S phase ([2]; RKO cells, 2.5 μM, 24 hours): 17.38%
- Cell ratio, Sub-G1 phase ([2]; RKO cells, 2.5 μM, 24 hours): 5.03%
- Cell ratio, G0/G1 phase [2, 3]: 17.80%
- Cell ratio, G2/M phase [2, 3]: 39.31%
- Cell ratio, S phase [2, 3]: 6.55%
- Cell ratio, Sub-G1 phase [2, 3]: 33.38%
- Cell ratio, G0/G1 phase ([2]; RKO cells, 5 μM, 6 hours): 60.66%
- Cell ratio, G2/M phase ([2]; RKO cells, 5 μM, 6 hours): 20.21%
- Cell ratio, S phase ([2]; RKO cells, 5 μM, 6 hours): 13.48%
- Cell ratio, Sub-G1 phase ([2]; RKO cells, 5 μM, 6 hours): 3.19%
- Cell ratio, G0/G1 phase ([2]; RKO cells, 5 μM, 12 hours): 57.60%
- Cell ratio, G2/M phase ([2]; RKO cells, 5 μM, 12 hours): 20.93%
- Cell ratio, S phase ([2]; RKO cells, 5 μM, 12 hours): 14.63%
- Cell ratio, Sub-G1 phase ([2]; RKO cells, 5 μM, 12 hours): 3.80%
- Cell ratio, G0/G1 phase ([2]; RKO cells, 5 μM, 24 hours): 28.35%
- Cell ratio, G2/M phase ([2]; RKO cells, 5 μM, 24 hours): 48.88%
- Cell ratio, S phase ([2]; RKO cells, 5 μM, 24 hours): 14.08%
- Cell ratio, Sub-G1 phase ([2]; RKO cells, 5 μM, 24 hours): 4.86%
- Cell ratio, G0/G1 phase [2, 4]: 20.53%
- Cell ratio, G2/M phase [2, 4]: 23.37%
- Cell ratio, S phase [2, 4]: 5.90%
- Cell ratio, Sub-G1 phase [2, 4]: 48.23%
- Cell ratio, G0/G1 phase ([2]; RKO cells, 48 hours, 0.625 μM): 52.49%
- Cell ratio, G2/m phase ([2]; RKO cells, 48 hours, 0.625 μM): 29.56%
- Cell ratio, S phase ([2]; RKO cells, 48 hours, 0.625 μM): 8.11%
- Cell ratio, Sub-G1 phase ([2]; RKO cells, 48 hours, 0.625 μM): 7.14%
- Cell ratio, G0/G1 phase ([2]; RKO cells, 48 hours, 1.25 μM): 23.02%
- Cell ratio, G2/m phase ([2]; RKO cells, 48 hours, 1.25 μM): 43.94%
- Cell ratio, S phase ([2]; RKO cells, 48 hours, 1.25 μM): 6.39%
- Cell ratio, Sub-G1 phase ([2]; RKO cells, 48 hours, 1.25 μM): 24.18%
- Cell ratio, G0/G1 phase [2, 5]: 17.99%
- Cell ratio, G2/m phase [2, 5]: 34.58%
- Cell ratio, S phase [2, 5]: 6.63%
- Cell ratio, Sub-G1 phase [2, 5]: 38.60%
- Cell ratio, G0/G1 phase [2, 6]: 17.59%
- Cell ratio, G2/m phase [2, 6]: 15.97%
- Cell ratio, S phase [2, 6]: 5.29%
- Cell ratio, Sub-G1 phase [2, 6]: 59.90%
- Cell ratio, G0/G1 phase ([2]; RKO cells, 48 hours, 10 μM): 17.07%
- Cell ratio, G2/m phase ([2]; RKO cells, 48 hours, 10 μM): 8.92%
- Cell ratio, S phase ([2]; RKO cells, 48 hours, 10 μM): 5.46%
- Cell ratio, Sub-G1 phase ([2]; RKO cells, 48 hours, 10 μM): 67.82%
